Experiment: Exposure to 75% Relative Humidity atmosphere (re-weighing and infrared spectrum)
Type: physicochemical
Details: sealed container, 75% Relative Humidity (saturated sodium chloride solution), 21° C., 96 hours
Excerpt: The sample was re-weighed and the infrared spectrum of the product recorded.

## CN(CCOc1ccc(CC2SC(=O)NC2=O)cc1)c1ccccn1.I (centres unmarked) [Hydriodide, 5-[4-[2-(N-Methyl-N-(2-pyridyl)amino)ethoxy]benzyl]thiazolidine-2,4-dione Hydriodide]
  Infrared spectrum after humidity exposure: no change
  Sample weight after humidity exposure: no weight gain

— patent US20040024027A1 (priority 2000, published 2004)
